Data published in article PMC9896412, “The role of invariant surface glycoprotein 75 in xenobiotic acquisition by African trypanosomes” (Microbial Cell, 2023).

What was measured:
[1] = biological target: T1, invariant surface glycoprotein 75 (ISG75) (Trypanosoma brucei, UniProt Q1WK95); experiment: biochemical
[2] = biological target: T1, invariant surface glycoprotein 75 (ISG75); experiment: ITC (tag-free protein from S2 cells); type: binding

## Cc1ccc(C(=O)Nc2ccc(S(=O)(=O)O)c3cc(S(=O)(=O)O)cc(S(=O)(=O)O)c23)cc1NC(=O)c1cccc(NC(=O)Nc2cccc(C(=O)Nc3cc(C(=O)Nc4ccc(S(=O)(=O)O)c5cc(S(=O)(=O)O)cc(S(=O)(=O)O)c45)ccc3C)c2)c1 [suramin]
[1]
  Kd: 3.2 µM

## Cc1cc(-c2ccc(/N=N/c3c(S(=O)(=O)O)cc4cc(S(=O)(=O)O)cc(N)c4c3O)c(C)c2)ccc1/N=N/c1c(S(=O)(=O)O)cc2cc(S(=O)(=O)O)cc(N)c2c1O [trypan blue]
[2]
  Kd: 0.6 µM
